{"source": "patent US20220372014A1", "about": "“NEUROPROTECTIVE COMPOUNDS AND METHODS OF USE THEREOF” (The Johns Hopkins University, priority 2019, published 2022)", "key": {"MIF": {"target": "T1, MIF (Homo sapiens, UniProt P14174)", "T1 sequence (P14174 1-115)": "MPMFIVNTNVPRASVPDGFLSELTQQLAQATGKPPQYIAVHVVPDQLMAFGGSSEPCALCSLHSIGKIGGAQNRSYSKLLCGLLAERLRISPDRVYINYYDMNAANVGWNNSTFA", "assay": "Nuclease assay of Example 3 (MIF inhibitory activity, Table 4)", "format": "biochemical", "design": "(%) inhibition of MIF nuclease activity: concentration or dose not given beside the values", "details": "nuclease assay of Example 3", "procedure": "A rapafucin library was synthesized as described in WO2017/136708 and Guo et al. (2018) Nat. Chem. 11:254-63. The hybrid macrocyclic library consisted of 45,000 compounds in pools of 15 individual compounds. The library compounds were screened for MIF inhibitory activity using a nuclease assay as detailed in FIG. 1 and below.\nNuclease assay: Human genomic DNA (200 ng/reaction, Promega), pcDNA (200 ng/reaction) or PS^30 and its related and non-related substrates (1 μM) was incubated with wild type MIF or its variants at a final concentration of 0.25-8 μM as indicated in 10 mM Tris-HCl buffer (pH 7.0) containing 10 mM MgCl2 and 1 mM DTT or specific buffer as indicated, for 1 h (with pcDNA and small DNA substrates) or 4 h (with human genomic DNA) at 37° C. The reaction was terminated with loading buffer containing 10 mM EDTA and incubation on ice. The human genomic DNA samples were immediately separated on a 1.2% pulse field certified agarose in 0.5×TBE buffer with initial switch time of 1.5 s and a final switch time of 3.5 s for 12 h at 6 V/cm. pcDNA samples were determined by 1% agarose gel. Small DNA substrates were separated on 15% or 25% TBE-urea polyacrylamide (PAGE) gel or 20% TBE PAGE gel. Then gel was stained with 0.5 μg/ml Ethidium Bromide (EtBr) followed by electrophoretic transfer to nylon membrane. Then, Biotin-labeled DNA is further detected by chemiluminescence using Chemiluminescent Nucleic Acid Detection Module (Thermo Scientific).\nStructure-activity relationship (SAR) analysis was then conducted on the compounds identified as having MIF inhibitory activity. Compounds having the structure of Formula (I) were then synthesized as shown in Example 1 and tested for MIF inhibitory activity using the nuclease assay described herein and neuronal protection via a cell death assay as detailed below."}, "[1]": {"test_system": "HeLa cells or neuronal cells", "assay": "Cell death assay of Example 3 (MNNG, alamarBlue; protection against parthanatos, Table 4)", "format": "cell-based", "details": "1 μM test compound, MNNG-induced cell death, alamarBlue", "procedure": "Cell death assay: 200 μl of cells (HeLa cells or neuronal cells) culture (1×10^4 cells/well) were plated into the wells of a sterile 96-well cell culture plate. The cells were incubated for 18 hours at 37° C. The medium was removed and changed with 100 μl/well of 1 μM test compound. Incubate for 1 hours at 37° C. Ten μl of 500 μM MNNG (N-Methyl-N′-nitro-N-nitrosoguanidine) was added to each well. The medium was aspirated well and incubated for 15 min at 37° C. The cells were washed with the fresh medium. The medium was changed with 1 μM of test compound and incubated for 18 hours at 37° C. 10 μl/well of alamarBlue reagent was added directly to the well and incubated for 1 to 4 hours at 37° C. Fluorescence was measured using a fluorescence excitation wavelength of 560 nm and emission at 590 nm. The percentage of cell death was determined as the ratio of live to dead cells compared with the percentage of cell death in control wells to account for cell death attributed to mechanical stimulation of the cultures."}}, "data": [{"smiles": "C[C@H]1C(=O)NC(c2ccccc2)C(=O)N(C)[C@@H](COC(C)(C)C)C(=O)N2CCC[C@H]2C(=O)N(C)CCC=CC(=O)OCC(C)(C)C(=O)C(=O)N2CCCC[C@H]2C(=O)O[C@H](CCc2ccccc2)c2cccc(c2)OCC(=O)N1C", "note": "(stereo partly shown) [compound 149]", "values": [{"measurement": "(%) inhibition of MIF nuclease activity", "setting": "MIF", "result": "−11.8", "unit": "%"}, {"measurement": "(%) inhibition of cell death", "setting": "[1]", "result": 51.0, "unit": "%"}]}, {"smiles": "COc1ccc(CC[C@H]2OC(=O)[C@@H]3CN(C(=O)OCC4c5ccccc5-c5ccccc54)CCN3C(=O)C(=O)C(C)(C)COC(=O)C=CCCN(C)C(=O)[C@@H]3CCCN3C(=O)[C@H](COC(C)(C)C)N(C)C(=O)C(c3ccccc3)NC(=O)[C@H](C)N(C)C(=O)COc3cccc2c3)cc1OC", "note": "(stereo partly shown) [compound 127]", "values": [{"measurement": "(%) inhibition of MIF nuclease activity", "setting": "MIF", "result": 5.0, "unit": "%"}, {"measurement": "(%) inhibition of cell death", "setting": "[1]", "result": 46.4, "unit": "%"}]}, {"smiles": "COc1ccc(CC[C@H]2OC(=O)[C@@H]3CCCCN3C(=O)C(=O)C(C)(C)COC(=O)C=CCCN(C)C(=O)[C@H](C)NC(=O)[C@H](COC(C)(C)C)N(C)C(=O)[C@@H](CC(C)C)NC(=O)CN(C)C(=O)COc3cccc2c3)cc1OC", "note": "[compound 2]", "values": [{"measurement": "(%) inhibition of MIF nuclease activity", "setting": "MIF", "result": 15.3, "unit": "%"}, {"measurement": "(%) inhibition of cell death", "setting": "[1]", "result": 41.1, "unit": "%"}]}, {"smiles": "COc1cc(CC[C@H]2OC(=O)[C@@H]3CCCCN3C(=O)C(=O)C(C)(C)COC(=O)C=CCCN(C)C(=O)[C@@H]3CCCN3C(=O)[C@H](COC(C)(C)C)N(C)C(=O)C(c3ccccc3)NC(=O)[C@H](C)N(C)C(=O)COc3cccc2c3)cc(OC)c1OC", "note": "(stereo partly shown) [compound 115]", "values": [{"measurement": "(%) inhibition of MIF nuclease activity", "setting": "MIF", "result": 8.7, "unit": "%"}, {"measurement": "(%) inhibition of cell death", "setting": "[1]", "result": 47.9, "unit": "%"}]}, {"smiles": "COc1ccc(CC[C@H]2OC(=O)[C@@H]3CCCCN3C(=O)C(=O)C(C)(C)COC(=O)C=CCCN(C)C(=O)[C@@H]3CCCN3C(=O)[C@H](COC(C)(C)C)N(C)C(=O)C(c3ccccc3)NC(=O)[C@H](C)N(C)C(=O)COc3cccc2c3)c(F)c1OC", "note": "(stereo partly shown) [compound 117]", "values": [{"measurement": "(%) inhibition of MIF nuclease activity", "setting": "MIF", "result": "−5.1", "unit": "%"}, {"measurement": "(%) inhibition of cell death", "setting": "[1]", "result": 51.8, "unit": "%"}]}, {"smiles": "COc1ccc(CC[C@H]2OC(=O)[C@@H]3CCCCN3C(=O)C(=O)C(C)(C)COC(=O)C=CCCN(C)C(=O)[C@H](Cc3ccc(F)cc3)NC(=O)[C@H](COC(C)(C)C)N(C)C(=O)[C@H](Cc3ccc4ccccc4c3)NC(=O)[C@H](C)N(C)C(=O)COc3cccc2c3)cc1OC", "note": "[compound 25]", "values": [{"measurement": "(%) inhibition of MIF nuclease activity", "setting": "MIF", "result": 25.8, "unit": "%"}, {"measurement": "(%) inhibition of cell death", "setting": "[1]", "result": 59.1, "unit": "%"}]}, {"smiles": "COc1ccc(CC[C@H]2OC(=O)[C@@H]3CCCCN3C(=O)C(=O)C(C)(C)COC(=O)C=CCCN(C)C(=O)[C@@H]3CCCN3C(=O)[C@H](C(C)C)N(C)C(=O)[C@@H](Cc3ccccc3)NC(=O)[C@H](CC(C)C)N(C)C(=O)CCC(=O)Nc3cccc2c3)cc1OC", "note": "[compound 86]", "values": [{"measurement": "(%) inhibition of MIF nuclease activity", "setting": "MIF", "result": 22.7, "unit": "%"}, {"measurement": "(%) inhibition of cell death", "setting": "[1]", "result": 53.0, "unit": "%"}]}, {"smiles": "COc1ccc(CC[C@H]2OC(=O)[C@@H]3CCCCN3C(=O)C(=O)C(C)(C)COC(=O)C=CCCN(C)C(=O)[C@@H]3CCCN3C(=O)[C@H](COC(C)(C)C)N(C)C(=O)C(Cc3ccc(O)cc3)NC(=O)[C@H](C)NC(=O)COc3cccc2c3)cc1OC", "note": "(stereo partly shown) [compound 142]", "values": [{"measurement": "(%) inhibition of MIF nuclease activity", "setting": "MIF", "result": "−4.7", "unit": "%"}, {"measurement": "(%) inhibition of cell death", "setting": "[1]", "result": 42.5, "unit": "%"}]}, {"smiles": "CCC[C@@H]1NC(=O)[C@H](COC(C)(C)C)N(C)C(=O)C(c2ccccc2)NC(=O)CN(C)C(=O)COc2cccc(c2)[C@@H](CCc2ccc(OC)c(OC)c2)OC(=O)[C@@H]2CCCCN2C(=O)C(=O)C(C)(C)COC(=O)C=CCCN(C)C1=O", "note": "(stereo partly shown) [compound 34]", "values": [{"measurement": "(%) inhibition of MIF nuclease activity", "setting": "MIF", "result": 24.2, "unit": "%"}, {"measurement": "(%) inhibition of cell death", "setting": "[1]", "result": 58.4, "unit": "%"}]}, {"smiles": "COc1ccc(CC[C@H]2OC(=O)[C@@H]3CCCCN3C(=O)C(=O)C(C)(C)COC(=O)C=CCCN(C)C(=O)[C@H](CC(C)C)NC(=O)[C@H](COC(C)(C)C)N(C)C(=O)[C@H](Cc3ccc4ccccc4c3)NC(=O)[C@H](C)N(C)C(=O)COc3cccc2c3)cc1OC", "note": "[compound 21]", "values": [{"measurement": "(%) inhibition of MIF nuclease activity", "setting": "MIF", "result": 57.9, "unit": "%"}, {"measurement": "(%) inhibition of cell death", "setting": "[1]", "result": 61.0, "unit": "%"}]}, {"smiles": "COc1ccc(CC[C@H]2OC(=O)[C@@H]3CCCCN3C(=O)C(=O)C(C)(C)COC(=O)C=CCCN(C)C(=O)[C@@H](CC(C)C)NC(=O)[C@H](Cc3ccccc3)N(C)C(=O)[C@@H](C)NC(=O)CN(C)C(=O)COc3cccc2c3)cc1OC", "note": "[compound 67]", "values": [{"measurement": "(%) inhibition of MIF nuclease activity", "setting": "MIF", "result": 76.3, "unit": "%"}, {"measurement": "(%) inhibition of cell death", "setting": "[1]", "result": 73.7, "unit": "%"}]}]}
